Source: the METLIN SMRT retention time set (Domingo-Almenara et al. 2019)

Assay: gradient 5% acetonitrile 3 min, to 50% in 2 min, to 85% in 15 min, held 3 min, 100 µL/min
Details: column: Zorbax Extend-C18 2.1 x 50 mm; eluents: water / acetonitrile, 0.1% formic acid
Outline: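 Data were gathered over 3 months by HPLC coupled to a quadrupole time-of-flight mass spectrometer, operated in positive and negative ionization mode. Mixtures of ~100 pure standards ran on a Zorbax Extend-C18 column (2.1 × 50 mm, 1.8 μm) at 100 μL/min, with water and acetonitrile each containing 0.1% formic acid and dead and dwell volumes of 40 μL and 900 μL. Retention time was read from adduct peaks picked by computer and checked manually.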

Structure (SMILES) | RP-LC retention time [s]
O=Cc1cn(Cc2ccc(Cl)cc2)c2ccccc12 | 968
COc1ccc(NC(=O)N2CCc3c(c(-c4nnc(-c5ccccc5Cl)o4)nn3C)C2)cc1 | 853
Cc1ccc(-c2nc(Nc3ccc(Br)cc3)sc2CC(=O)O)c(C)c1 | 1090
O=C(Nc1ccc(-c2nnc3n2CCCC3)cc1)C1CC1 | 609
CC(C)(C)NCC(O)c1cc(Cl)c(N)c(C(F)(F)F)c1 (stereo not given) | 708
Cc1ccc(Nc2c(-c3ccc(C)cc3)nc3c(C)cccn23)cc1 | 808
C[C@@H]1C(=O)O[C@H]2C[C@@]34C5C[C@@H](C(C)(C)C)[C@]36[C@H](OC(=O)[C@@H]6O)OC4(C(=O)O5)[C@]21O (stereo not given in full) | 709
CCN(C(=O)C1C(=O)NC2(C)CC1c1ccccc1O2)c1ccccc1 (stereo not given) | 820
CCSc1ccccc1C(=O)NC(C)Cc1ccco1 (stereo not given) | 841
O=C(NCc1cccc(Cl)c1)C1CCCN(c2nccnc2Oc2ccccc2)C1 (stereo not given) | 1020
CCn1cc(S(=O)(=O)Nc2ccccc2F)c2cccnc21 | 790
Cc1ccsc1-c1nnc(CC(=O)N2CCN(Cc3ccccc3)CC2)o1 | 630
COc1ccccc1Oc1c(NS(=O)(=O)c2ccc(C)cn2)nc(-c2ccncc2)nc1OC | 870
O=C(N[C@@H]1CN(c2ccncn2)C[C@H]1CO)c1ccc2ccccc2n1 | 604
O=C(Nc1ccc2nncn2c1)Nc1ccc(F)cc1F | 680
COc1cccc(C2Cn3nnc(-c4nc(-c5ccc(SC)cc5)no4)c3CO2)c1 (stereo not given) | 1200
O=C(Nc1ccc(F)cc1F)c1noc2c1CCCC2 | 883
COc1cccc(NC(=O)Cn2nc3c(Oc4cccc(Cl)c4)nccn3c2=O)c1 | 858
CC(C)(C)NC(=O)C(=O)c1c(-c2ccccc2)cc2ccccn12 | 948
Nc1ccc(-c2ccc3ncc4ccc(=O)n(-c5cccc(C(F)(F)F)c5)c4c3c2)cn1 | 653
CCc1csc(-c2cn(CC(=O)NCc3ccc(Cl)cc3)cn2)n1 | 724

Structure (SMILES) | RP-LC retention time [s]
CCOC(=O)c1csc(NC(=O)CCS(=O)(=O)c2ccc(OC)cc2)n1 | 700
CCSc1nc2ccc(NS(=O)(=O)c3ccccc3)cc2s1 | 997
CCc1ccc(CNC(=O)c2cc3n(n2)CC(C)(C(=O)NC2CCCC2)N(CC)C3=O)cc1 (stereo not given) | 865
O=C(Nc1cccc(Cl)c1)Nc1nccn(-c2ccc3c(c2)CCC3)c1=O | 1170
CCn1c(SCC(=O)N2CCCCC2)nnc1-c1ccc2c(c1)OCCCO2 | 734
CN(CCc1noc(COc2ccccc2F)n1)C(=O)Nc1ccc(F)c(Cl)c1 | 966
CNC(=O)c1cc(-c2ccccc2Cl)n[nH]1 | 668
COC(=O)c1cnc2nc(C)ccc2c1Nc1ccc(Cl)cc1F | 711
COc1cccc(NC(=O)N2CCN(c3ccc(Nc4cc(C)ccn4)nn3)CC2)c1 | 588
Cc1nc(-c2ccc(C(=O)NC(C)C)cc2)cs1 | 731
O=C(NCc1ccccc1)C1CCCN(c2nc3ccsc3c(=O)n2Cc2ccccc2)C1 (stereo not given) | 902
CSCC[C@H](NC(=O)COc1cc(C)cc2oc(=O)c3c(c12)CCC3)C(=O)O | 769
COC(=O)C(Cc1ccccc1)NC(=O)N1CCCn2nc(-c3cccs3)cc2C1 (stereo not given) | 841
Cc1ccc(CNC(=O)Nc2ccc(-c3nc(-c4cc(C)ccc4C)co3)cc2)cc1 | 1240
COc1ccc(C(=O)N2CCC3(CC2)N=C(c2ccc(Br)cc2)C(=O)N3)cc1 | 889
O=C1CCCN1c1ccc(Cn2nc3c(-c4nc(-c5ccccc5)no4)cccn3c2=O)cc1 | 839
O=C(NCCc1c[nH]c2ccc(Cl)cc12)c1ccccc1Cl | 873
CCOc1cccc(-c2noc(Cn3cnc4c(oc5ccccc54)c3=O)n2)c1 | 1010
Cc1ccc(-c2cn(CC(=O)N3CCN(c4ccc(C)cc4)CC3)c(=O)o2)cc1 | 975
O=C(NCCc1ccccc1)C1CCN(C(=O)c2ncn3c2COC(c2ccccc2)C3)CC1 (stereo not given) | 708
O=C(Cc1ccc(F)cc1)N1CCN(C(=O)c2nnn3c2COC(c2ccc(F)cc2)C3)CC1 (stereo not given) | 861

Continued, values first:

RP-LC retention time [s] | Structure (SMILES)
1070 | Cc1sc(-c2noc(C(C)C)n2)cc1S(=O)(=O)N1CCC(C(=O)N(C)Cc2ccco2)CC1
828 | CC(C)c1cc(C2CCCN2C(=O)c2ccsc2)no1 (stereo not given)
628 | O=C(NC1CCN(c2nnc3ccccn23)CC1)c1ccc2c(c1)OCO2
852 | Cc1cc(Cl)ccc1NC(=O)C1CCCN(S(=O)(=O)c2c[nH]c(C(=O)N3CCCC3)c2)C1 (stereo not given)
897 | Cc1cc(NC(=O)C2CCc3nc(N4CCOCC4)ncc3C2)ccc1Cl (stereo not given)
776 | CC(C)(C)OC(=O)CN(c1ccc(F)cc1)S(=O)(=O)c1cccn2cnnc12
1160 | Cc1ccc2c(c1)N(C(=O)Cn1cccc1-c1nc(-c3ccc4c(c3)OCO4)no1)CCO2
1120 | CCOC(=O)C1CCCN(S(=O)(=O)c2ccc(Cl)c(-c3nnc(-c4ccccc4)o3)c2)C1 (stereo not given)
905 | CC(C)N(Cc1ccccc1)C(=O)C1CCCN(c2ncnc3c2nc2n3CCCCC2)C1 (stereo not given)
725 | COCc1nncn1C1CCN(S(=O)(=O)c2ccccc2C(F)(F)F)CC1
703 | COc1cc(OC)c(NC(=O)N2CCCC(Cn3cnc4cccnc43)C2)cc1Cl (stereo not given)
682 | Cn1cnc2ccc(-c3noc(-c4cccc(NC(=O)c5ccco5)c4)n3)cc21
603 | CCOC(=O)C1CCN(C(=O)C2CCN(c3cncnc3N(C)C)CC2)CC1
1080 | COc1ccccc1NC(=O)N1CCCC1c1nc(-c2cccc(C)c2)no1 (stereo not given)
1180 | CCN1CCN(S(=O)(=O)c2cc(-c3nnc(-c4ccc(OC)c(OC)c4)o3)ccc2C)CC1
750 | CCOC(=O)c1sc(NC(=O)C2CC(=O)N(c3n[nH]c4ccccc34)C2)nc1C (stereo not given)
590 | CN1CCOc2ccc(NC(=O)C3CCN(S(C)(=O)=O)CC3)cc2C1=O
883 | Cn1c(=O)sc2cc(S(=O)(=O)N3CCC(C(=O)NCc4ccccc4Cl)CC3)ccc21
683 | COC(=O)c1cccc(NS(=O)(=O)c2cc3n(c2)CCN(C)C3=O)c1
675 | CCOC(=O)c1c(S(=O)(=O)NCCN2CCc3ccccc3C2)c(C)n(C)c1C
952 | CCc1nc(-c2csc(S(=O)(=O)N3CCC(C(=O)Nc4ccccc4)CC3)c2)no1
680 | CCN1CCCn2cc(S(=O)(=O)Nc3ccc(OC)cc3)cc2C1=O
698 | CC1CCN(C(=O)CN2C(=O)COc3ccc(C(=O)N4CCCC4)cc32)CC1
